Test system: FtsA self-interaction
Test: FRET self-interaction of His-tagged FtsAs (and His-SUMO control) on Tris-NTA membranes
Assay type: binding, E. coli
Method: To study colocalization of His-tagged variants of FtsA, 0.5–1 µM of Cy5 labelled His-tagged FtsAs were added to the chamber, incubated for 20 min and washed 6x with reaction buffer. […] To control the density of membrane-bound FtsA, SUVs without and with Tris-NTA lipids were mixed to obtain the respective Tris-NTA concentrations. To perform FRET/FRAP experiments, equimolar concentrations of Cy3 and Cy5 labelled His-tagged FtsAs (total 0.5–1 µM) or His-SUMO-Cys were added to a chamber and treated as above. […] FRAP experiments were performed as described before.
Bleaching the acceptor dye leads to an increase in the donor intensity, which can be used to quantify the Foerster Resonance energy transfer (FRET)[48]. FRET efficiency was quantified with E%=Ipost/Ipost+Ipre⋅100 , where Ipost is the intensity of the […] and Ipre is the […]. […] To extract the contribution of both processes, we adjusted a routine recently published by Gerganova et al.[33]. In short, the code provides the contribution of both modes of recovery by analysing the shape of the fluorescence recovery profile. […] Contribution of diffusion leads to a change of the slope of the outer borders of the bleached region (S4h right). Thus, by measuring the change of the slope of the border recovery, diffusion and simple on/off binding can be distinguished. We developed “FRAPdiff”, a graphical user interface, which uses the original fit routine by David Rutkowski. It can be used directly on.tiff movies with annotated bleach regions as ImageJ ROIs. In addition, we added optional bleach correction, user selectable projection axis (x or y), and optional mirroring of the recovery profiles, if bleaching was not symmetric. The original fit routine for estimating the recovery and diffusion dynamics can be found at https://github.com/davidmrutkowski/1DReflectingDiffusion. FRAPdiff is available at 10.5281/zenodo.6400639[49] under the GPLv3 open-source license.

With “FtsA-His6: FtsA WT (1-405) with amphipathic helix replaced by C-terminal His-tag” as the substance, how does the FRET efficiency (0.1% Tris NTA, + FtsZ; Exp1) read?
Its FRET efficiency is 3.78%.

What about the FRET efficiency (0.1% Tris NTA, + FtsZ; Exp2) of the same substance?
Its FRET efficiency is 0.99%.

What about the FRET efficiency (0.1% Tris NTA, + FtsZ; mean, n = 2) of the same substance?
The FRET efficiency was 2.39%.

What about the FRET efficiency (0.1% Tris NTA, without FtsZ; Exp1) of the same substance?
The FRET efficiency was 3.14%.

What about the FRET efficiency (0.1% Tris NTA, without FtsZ; Exp2) of the same substance?
Its FRET efficiency is 0.59%.

And the FRET efficiency (0.1% Tris NTA, without FtsZ; mean, n = 2)?
The FRET efficiency was 1.87%.

What about the FRET efficiency (0.4% Tris NTA; + FtsZ; Exp1) of the same substance?
Its FRET efficiency is 6.34%.

And the FRET efficiency (0.4% Tris NTA; + FtsZ; Exp2)?
Its FRET efficiency is 13.91%.

What about the FRET efficiency (0.4% Tris NTA; + FtsZ; Mean, n = 2) of the same substance?
The FRET efficiency was 10.12%.

What about the FRET efficiency (0.4% Tris NTA; without FtsZ; Exp1) of the same substance?
The FRET efficiency was 8.25%.

What about the FRET efficiency (0.4% Tris NTA; without FtsZ; Exp2) of the same substance?
Its FRET efficiency is 10.75%.

What about the FRET efficiency (0.4% Tris NTA; without FtsZ; Mean, n = 2) of the same substance?
The FRET efficiency was 9.50%.

What about the FRET efficiency (0.6% Tris NTA; + FtsZ; Exp1) of the same substance?
Its FRET efficiency is 12.72%.

And the FRET efficiency (0.6% Tris NTA; + FtsZ; Exp2)?
Its FRET efficiency is 16.89%.

What about the FRET efficiency (0.6% Tris NTA; + FtsZ; Exp3) of the same substance?
Its FRET efficiency is 21.31%.

And the FRET efficiency (0.6% Tris NTA; + FtsZ; Mean, n = 3)?
The FRET efficiency was 16.97%.

What about the FRET efficiency (0.6% Tris NTA; without FtsZ; Exp1) of the same substance?
The FRET efficiency was 13.98%.

And the FRET efficiency (0.6% Tris NTA; without FtsZ; Exp2)?
The FRET efficiency was 15.14%.

What about the FRET efficiency (0.6% Tris NTA; without FtsZ; Exp3) of the same substance?
The FRET efficiency was 19.21%.

What about the FRET efficiency (0.6% Tris NTA; without FtsZ; Mean, n = 3 (His6-SUMO n = 2)) of the same substance?
Its FRET efficiency is 16.11%.

What about the FRET efficiency (0.8% Tris NTA; + FtsZ; Exp1) of the same substance?
The FRET efficiency was 13.61%.

And the FRET efficiency (0.8% Tris NTA; + FtsZ; Exp2)?
The FRET efficiency was 19.13%.

What about the FRET efficiency (0.8% Tris NTA; + FtsZ; Exp3) of the same substance?
Its FRET efficiency is 15.44%.

What about the FRET efficiency (0.8% Tris NTA; + FtsZ; Mean, n = 3) of the same substance?
The FRET efficiency was 16.06%.

And the FRET efficiency (0.8% Tris NTA; without FtsZ; Exp1)?
The FRET efficiency was 14.15%.

And the FRET efficiency (0.8% Tris NTA; without FtsZ; Exp2)?
The FRET efficiency was 18.41%.

What about the FRET efficiency (0.8% Tris NTA; without FtsZ; Exp3) of the same substance?
The FRET efficiency was 13.88%.

What about the FRET efficiency (0.8% Tris NTA; without FtsZ; Mean, n = 3 (His6-SUMO n = 2)) of the same substance?
The FRET efficiency was 15.48%.

What about the FRET efficiency (1% Tris NTA; + FtsZ; Exp1) of the same substance?
Its FRET efficiency is 18.34%.

And the FRET efficiency (1% Tris NTA; + FtsZ; Exp2)?
The FRET efficiency was 21.19%.

What about the FRET efficiency (1% Tris NTA; + FtsZ; Exp3) of the same substance?
The FRET efficiency was 19.01%.

What about the FRET efficiency (1% Tris NTA; + FtsZ; Mean, n = 3 (R286W-His6 n = 4)) of the same substance?
Its FRET efficiency is 19.51%.

And the FRET efficiency (1% Tris NTA; without FtsZ; Exp1)?
The FRET efficiency was 16.93%.

And the FRET efficiency (1% Tris NTA; without FtsZ; Exp2)?
The FRET efficiency was 19.88%.

And the FRET efficiency (1% Tris NTA; without FtsZ; Exp3)?
The FRET efficiency was 16.24%.

What about the FRET efficiency (1% Tris NTA; without FtsZ; Mean, n = 3 (R286W-His6 n = 4)) of the same substance?
Its FRET efficiency is 17.68%.

And the FRET efficiency (2% Tris NTA; + FtsZ; Exp1)?
Its FRET efficiency is 32.05%.

And the FRET efficiency (2% Tris NTA; + FtsZ; Exp2)?
Its FRET efficiency is 31.95%.

And the FRET efficiency (2% Tris NTA; + FtsZ; Mean, n = 2)?
The FRET efficiency was 32.00%.

What about the FRET efficiency (2% Tris NTA; without FtsZ; Exp1) of the same substance?
Its FRET efficiency is 32.49%.

What about the FRET efficiency (2% Tris NTA; without FtsZ; Exp2) of the same substance?
The FRET efficiency was 23.34%.

And the FRET efficiency (2% Tris NTA; without FtsZ; Mean, n = 2)?
Its FRET efficiency is 27.92%.

And the FRET efficiency (Tris 0.40 %, + FtsZ; mean)?
The FRET efficiency was 10.12%.

And the FRET efficiency (Tris 0.40 %, without FtsZ; mean)?
The FRET efficiency was 9.50%.

And the FRET efficiency (Tris 0.60 %, + FtsZ; mean)?
Its FRET efficiency is 16.97%.

And the FRET efficiency (Tris 0.60 %, without FtsZ; mean)?
Its FRET efficiency is 16.11%.

And the FRET efficiency (Tris 0.80 %, + FtsZ; mean)?
Its FRET efficiency is 16.06%.

What about the FRET efficiency (Tris 0.80 %, without FtsZ; mean) of the same substance?
Its FRET efficiency is 15.48%.

What about the FRET efficiency (Tris 1.00 %, + FtsZ; mean) of the same substance?
Its FRET efficiency is 19.51%.

What about the FRET efficiency (Tris 1.00 %, without FtsZ; mean) of the same substance?
The FRET efficiency was 17.68%.

What about the FRET efficiency (Tris 2.00 %, + FtsZ; mean) of the same substance?
Its FRET efficiency is 32.00%.

And the FRET efficiency (Tris 2.00 %, without FtsZ; mean)?
The FRET efficiency was 27.92%.

What about the FRET efficiency (Tris […], + FtsZ; mean) of the same substance?
Its FRET efficiency is 28.93%.

And the FRET efficiency (Tris […], without FtsZ; mean)?
The FRET efficiency was 25.95%.

What about the FRET efficiency ([…] Tris NTA, + FtsZ; Exp1) of the same substance?
The FRET efficiency was 2.38%.

What about the FRET efficiency ([…] Tris NTA, + FtsZ; Exp2) of the same substance?
Its FRET efficiency is 10.40%.

What about the FRET efficiency ([…] Tris NTA, + FtsZ; mean, n = 2) of the same substance?
The FRET efficiency was 6.39%.

What about the FRET efficiency ([…] Tris NTA, without FtsZ; Exp1) of the same substance?
The FRET efficiency was 3.80%.

What about the FRET efficiency ([…] Tris NTA, without FtsZ; Exp2) of the same substance?
Its FRET efficiency is 9.45%.

And the FRET efficiency ([…] Tris NTA, without FtsZ; mean, n = 2; listed as FtsA WT-His6)?
Its FRET efficiency is 6.62%.

And the FRET efficiency ([…] Tris NTA, without FtsZ; mean, n = 2; listed as WT-His6)?
Its FRET efficiency is 6.63%.

And the FRET efficiency ([…] Tris NTA; + FtsZ; Exp1)?
The FRET efficiency was 34.73%.

What about the FRET efficiency ([…] Tris NTA; + FtsZ; Exp2) of the same substance?
Its FRET efficiency is 27.23%.

And the FRET efficiency ([…] Tris NTA; + FtsZ; Exp3)?
The FRET efficiency was 24.81%.

And the FRET efficiency ([…] Tris NTA; + FtsZ; Mean, n = 3)?
The FRET efficiency was 28.93%.

And the FRET efficiency ([…] Tris NTA; without FtsZ; Exp1)?
Its FRET efficiency is 28.26%.

And the FRET efficiency ([…] Tris NTA; without FtsZ; Exp2)?
The FRET efficiency was 26.94%.

And the FRET efficiency ([…] Tris NTA; without FtsZ; Exp3)?
Its FRET efficiency is 22.66%.

What about the FRET efficiency ([…] Tris NTA; without FtsZ; Mean, n = 3) of the same substance?
Its FRET efficiency is 25.95%.

What about the FRET efficiency ([…] Tris-NTA; + N (FtsNcyto); mean) of the same substance?
The FRET efficiency was 26.95%.

What about the FRET efficiency ([…] Tris-NTA; + N/Z (FtsNcyto and FtsZ); mean) of the same substance?
The FRET efficiency was 24.12%.

What about the FRET efficiency ([…] Tris-NTA; + N/Z; Exp. 1) of the same substance?
The FRET efficiency was 22.20%.

And the FRET efficiency ([…] Tris-NTA; + N/Z; Exp. 2)?
The FRET efficiency was 29.86%.

What about the FRET efficiency ([…] Tris-NTA; + N/Z; Exp. 3) of the same substance?
Its FRET efficiency is 20.31%.

And the FRET efficiency ([…] Tris-NTA; + N; Exp. 1)?
The FRET efficiency was 28.94%.

And the FRET efficiency ([…] Tris-NTA; + N; Exp. 2)?
Its FRET efficiency is 24.96%.

And the FRET efficiency ([…] Tris-NTA; + N; Exp. 3)?
The FRET efficiency was 26.96%.

And the FRET efficiency ([…] Tris-NTA; + Z (FtsZ); mean)?
The FRET efficiency was 27.70%.

What about the FRET efficiency ([…] Tris-NTA; + Z; Exp. 1) of the same substance?
Its FRET efficiency is 34.73%.

What about the FRET efficiency ([…] Tris-NTA; + Z; Exp. 2) of the same substance?
The FRET efficiency was 27.23%.

What about the FRET efficiency ([…] Tris-NTA; + Z; Exp. 3) of the same substance?
The FRET efficiency was 24.81%.

What about the FRET efficiency ([…] Tris-NTA; + Z; Exp. 4) of the same substance?
Its FRET efficiency is 24.02%.

And the FRET efficiency ([…] Tris-NTA; alone; Exp. 1)?
The FRET efficiency was 28.26%.

And the FRET efficiency ([…] Tris-NTA; alone; Exp. 2)?
Its FRET efficiency is 26.94%.

And the FRET efficiency ([…] Tris-NTA; alone; Exp. 3)?
Its FRET efficiency is 22.66%.

What about the FRET efficiency ([…] Tris-NTA; alone; Exp. 4) of the same substance?
The FRET efficiency was 20.84%.

What about the FRET efficiency ([…] Tris-NTA; alone; mean) of the same substance?
Its FRET efficiency is 24.68%.

From article PMC9098913, “In vitro reconstitution of Escherichia coli divisome activation” (Nature Communications, 2022)
